# Results: PMC7762957, “Snapshots during the catalytic cycle of a histidine acid phytase reveal an induced-fit structural mechanism” (The Journal of Biological Chemistry, 2020)
# B1: BlMINPP (Bifidobacterium longum subsp. infantis ATCC 15697 = JCM 1222 = DSM 20088) (protein)
# chain: MEADGRYYSSKQPYVAPNDATASSYSKAPKGYGPIYTESMARHGSRGLSSYKYDALLMRMAETAARDGGFKSEAIKAEFVKNLSGITAANVENGYGMLTGQGAQQHYGIGERAYQRNRSLFDQAAADGGTIAYQSSGEARATESGENFEKGFNEASGGRLIGNVSAPTNPADSGNGKDFQKNPDTLYFHKVQNPDGTSKVPGTKAYDIANNYQNFVANDATIAGAEKTIGDNVDVKRASHDLLSQIFTEEFLAKLENGEYKWYNTTDGTKKGGKNCAPGADASKDPDACGEVSKKIKSEYDAAMDLYNLYIIAADMHNENTGDHTFAFDQYFQGAYADDARMFAWALDAEDFYEKGPSYAGQNETYSIAQPLLDDFLNTIDARVNGGSTVATFRFAHAETMMPFAALLGLPGSTQQAPASTTDVYTYGNNEWRGESVTPMAANVQWDVYARKGEDPATGQRYTPIVRMLYNENEVPFRSECTPVADGSTWYKLTELKSCLAADHKTLGQDARI
# Legend:
# BtMINPP = target: T1, BtMINPP (Bacteroides thetaiotaomicron, UniProt Q89YI8); assay: HPLC of inositol polyphosphate products; type: biochemical; settings: pH 5.5, 200 mM sodium acetate, 150 mM NaCl; 1 mM substrate, 25 nM enzyme
# T1 construct: gene BT_4744
# T1 sequence (Q89YI8 21-425): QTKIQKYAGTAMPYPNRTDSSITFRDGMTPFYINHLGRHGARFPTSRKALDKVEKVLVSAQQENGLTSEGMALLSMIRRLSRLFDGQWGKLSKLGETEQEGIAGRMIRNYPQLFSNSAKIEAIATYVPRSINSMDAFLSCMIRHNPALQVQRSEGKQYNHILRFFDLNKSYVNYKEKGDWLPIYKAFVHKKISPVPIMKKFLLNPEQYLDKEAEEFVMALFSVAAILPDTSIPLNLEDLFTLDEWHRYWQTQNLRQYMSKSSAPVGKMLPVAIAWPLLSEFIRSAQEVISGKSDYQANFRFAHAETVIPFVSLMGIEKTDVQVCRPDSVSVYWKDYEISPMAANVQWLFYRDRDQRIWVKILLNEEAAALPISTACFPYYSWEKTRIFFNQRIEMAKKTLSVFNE
# AnPhyA = target: T2, AnPhyA (Aspergillus niger, UniProt P34752); assay: HPLC of inositol polyphosphate products; type: biochemical; settings: pH 5.5, 200 mM sodium acetate, 150 mM NaCl; 1 mM substrate, 25 nM enzyme
# T2 construct: gene phyA; codon-optimised, N-terminal 3C site, C-terminal His6; secreted from Pichia pastoris KM71H; Ni-NTA purified
# T2 sequence (P34752 24-467): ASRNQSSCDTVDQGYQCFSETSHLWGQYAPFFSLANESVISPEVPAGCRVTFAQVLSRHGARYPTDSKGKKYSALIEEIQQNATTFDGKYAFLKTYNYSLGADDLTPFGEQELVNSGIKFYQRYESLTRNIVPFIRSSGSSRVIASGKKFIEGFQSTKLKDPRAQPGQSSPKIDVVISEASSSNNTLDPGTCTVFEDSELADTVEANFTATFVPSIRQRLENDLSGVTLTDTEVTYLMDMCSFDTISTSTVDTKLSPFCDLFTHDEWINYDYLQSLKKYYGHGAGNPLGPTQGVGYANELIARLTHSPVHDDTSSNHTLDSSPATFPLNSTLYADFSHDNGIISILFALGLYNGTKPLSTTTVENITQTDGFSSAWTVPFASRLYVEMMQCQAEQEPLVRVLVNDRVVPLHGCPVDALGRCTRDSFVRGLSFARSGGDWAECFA
# EcAppA = target: T3, EcAppA (Escherichia coli, UniProt P07102); assay: HPLC of inositol polyphosphate products; type: biochemical; settings: pH 5.5, 200 mM sodium acetate, 150 mM NaCl; 1 mM substrate, 25 nM enzyme
# T3 construct: gene appA; pOPINB, N-terminal cleavable His tag, cytoplasmic expression in E. coli Shuffle Express T7; Ni-NTA and gel filtration
# T3 sequence (P07102 23-432): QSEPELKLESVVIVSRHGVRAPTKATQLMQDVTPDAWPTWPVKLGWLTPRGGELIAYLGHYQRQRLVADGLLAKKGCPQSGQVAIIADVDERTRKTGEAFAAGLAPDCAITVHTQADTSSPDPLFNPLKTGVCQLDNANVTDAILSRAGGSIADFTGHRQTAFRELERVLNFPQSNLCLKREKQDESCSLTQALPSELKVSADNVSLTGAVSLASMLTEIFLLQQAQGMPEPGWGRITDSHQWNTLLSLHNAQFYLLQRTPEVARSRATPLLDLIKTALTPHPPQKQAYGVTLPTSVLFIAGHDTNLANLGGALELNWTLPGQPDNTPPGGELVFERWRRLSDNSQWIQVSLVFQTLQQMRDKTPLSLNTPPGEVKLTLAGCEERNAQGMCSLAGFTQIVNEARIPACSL
# BlMINPP = BlMINPP (Bifidobacterium longum, UniProt B7GTV0); assay: X-ray crystal structure of complex, […] A; type: binding; parameters: gene Blon_0263; N-terminal His6 tag cleaved (WT: pOPINF, 3C protease; variants: pET28a, thrombin); E. coli Rosetta(DE3) pLysS; settings: non-hydrolysable substrate analogue in active site, two orientations; co-crystallised with 1 mM InsS6
# purified protein = substrate: O=P(O)(O)O[C@H]1[C@H](OP(=O)(O)O)[C@@H](OP(=O)(O)O)[C@H](OP(=O)(O)O)[C@@H](OP(=O)(O)O)[C@H]1OP(=O)(O)O; assay: purified protein; settings: pH 5.5, 200 mM sodium acetate, 0.15 M NaCl, room temperature, 25 nM enzyme
molecule,measurement,setting,value
"O=P(O)(O)O[C@H]1[C@H](OP(=O)(O)O)[C@@H](OP(=O)(O)O)[C@H](OP(=O)(O)O)[C@@H](OP(=O)(O)O)[C@H]1OP(=O)(O)O [InsP6, myo-Inositol 1,2,3,4,5,6-hexakisphosphate]",HPLC of inositol polyphosphate products,BtMINPP,"HPLC chromatograms of the products of InsP6 hydrolysis by BlMINPP, BtMINPP"
same,HPLC of inositol polyphosphate products,AnPhyA,"products of InsP6 hydrolysis by BlMINPP, BtMINPP, A. niger PhyA (AnPhyA)"
same,HPLC of inositol polyphosphate products,EcAppA,"E.coli AppA, which is accepted to possess high positional specificity"
O=S(=O)(O)O[C@H]1[C@H](OS(=O)(=O)O)[C@@H](OS(=O)(=O)O)[C@H](OS(=O)(=O)O)[C@@H](OS(=O)(=O)O)[C@H]1OS(=O)(=O)O [InsS6],"X-ray crystal structure of complex, 1.84 A",BlMINPP,A crystal of the purified recombinant enzyme grown in the presence of an excess InsS6
B1,Km,purified protein,54.5 ± 8.4 µM
same,kcat,purified protein,46.8 s⁻¹
same,kcat/Km,purified protein,900000 M⁻¹ s⁻¹
